According to patent US20190167771A1, “CONTROL ANGIOGENESIS BY REGULATING PHOSPHORYLATION OF SERYL-tRNA SYNTHETASE (SerRS)” (The Scripps Research Institute, priority 2016, published 2019):

Test system: MDA-MB-231 cells
Assay: MDA-MB-231 tumor xenograft model, tumor angiogenesis and growth
Type: in vivo, mouse
Conditions: for tumor angiogenesis (CD31 staining): MDA-MB-231 stably transfected with human SerRS gene (~10-fold overexpression), NSG mice, two weeks
Description: In FIG. 5A, human breast cancer cells MDA-MB-231 were stably transfected with human wild type (SerRS^WT) and mutant SerRS (SerRS^AA, SerRS^DD). The expression of SerRS was monitored by immunoblot. In FIGS. 5B-C, the engineered MDA-MB-231 cells (10^6 per mouse) were implanted into mouse fat pad in mammal glands to form tumor xenografts. 14 days later, tumor xenografts were excised and subjected to immunohistochemistry for CD31 (FIG. 5B) and subsequent quantification of blood vessels (FIG. 5C) (n=5-6). In FIGS. 5D-F, MDA-MB-231 cells (10^6 per mouse) stably transfected with SerRS^WT, SerRS^AA, HIF1-specific shRNA (HIF^KD), both SerRS^AA and HIF^KD or empty vector were implanted into mouse fat pad in mammal glands. The sizes of the tumor xenografts were measured until the mice were sacrificed on 35 days (FIG. 5D) and the tumor angiogenesis was measured by immunohistochemistry for CD31 (FIG. 5E) and VEGFA (FIG. 5F) (n=4-10). Scale bars represent 100 μm.
[…] MDA-MB-231 cells stably transfected with vectors expressing wild type human SerRS, SerRS^S101A/S241A, or SerRS^S101D/S241D were subcutaneously injected into the mammal glands of 6-8-week-old female NOD.Cg-Prkdc^scidIl2rg^tmJWjl/SzJ mice (six mice in each group) (Jackson Laboratory). 14 days after injection, the tumor xenograft were separated from mice and frozen in Tissue-Tek® OCT compound for cryostat sectioning.
5-μm sections from freshly frozen tumor xenograft and matrigel plugs were treated with acetone and 3% H2O2 to block endogenous peroxidase. After 3-5 times wash and goat serum block, the sections were incubated with an anti-CD31 antibody (1:3000; Cell Signaling Technology) overnight at 4° C. The blood vessels were counted in 5-10 random viable fields (120×) in tumor xenograft samples and microvessel density in matrigel plugs was quantified by measuring the CD31 staining density using Image J software. To detect the hypoxia, we incubated the slides with anti-HIF1α antibody (1:100; Novus Biologicals).
This example describes experiments studying the activity of SerRS^S101A/S241A and the effect of SerRS phosphorylation in hypoxia-induced angiogenesis in mammal.
Because hypoxia-induced angiogenesis is critical for solid tumor growth, experiments were performed to determine if hypoxia-induced SerRS phosphorylation/inactivation is important for tumor angiogenesis. Human breast cancer cells MDA-MB-231 were stably transfected with human SerRS^WT, SerRS^S101A/S241A, or SerRS^S101D/S241D gene to give high levels of overexpression (˜10-fold) compare to that of the endogenous protein (FIG. 4D). The engineered cells were implanted subcutaneously into the mammal glands of immune deficient NOD scid gamma (NSG) mice. Two weeks later, the vasculature in the tumor xenografts were examined by CD31 staining (FIGS. 4E and 4F). […]

Substance	tumor angiogenesis (CD31 staining)	angiogenesis and tumor growth compared with HIF-1 knockdown (murine model of triple negative human breast cancer, overexpression)
SerRS^S101A/S241A: phosphorylation-deficient human SerRS double mutant, serine 101 and 241 to alanine, SEQ ID NO: 4 (mouse version in matrigel assay)	much stronger inhibition of angiogenesis compared to SerRS^WT	suppress angiogenesis and tumor growth much more robustly than the knockdown of HIF-1
SerRS^S101D/S241D: SerRS with double substitutions of S101 and S241 with aspartic acid, mimics the phosphorylated SerRS	strong activity in promoting tumor angiogenesis	–
SerRS^WT: wildtype human seryl-tRNA synthetase protein, SEQ ID NO: 1 (mouse wild type used in the 3B11 matrigel assay)	suppressed tumor angiogenesis	–
